Source: patent US10093630B2, “Pyrazole compounds and methods of making and using same” (ABIDE THERAPEUTICS, INC., priority 2014, dated 2018)

What was measured:
Assay in all cases: In vitro competitive activity-based protein profiling (gel-based, FP-Rh or HT-01 probe)
Format in all cases: biochemical
[1] = target: T1, ABHD6 (Mus musculus, UniProt Q8R2Y0); conditions: for inhibition at 10 µM: 10 μM inhibitor, read-out: % Inhibition at 10 μM, C = ABHD6; for IC50: mouse brain membrane fraction or cell lysates, 30 min preincubation at 37° C., read-out: Mouse (IC50 value, nM) ABHD6; for inhibition at 1 µM: 1 μM inhibitor, read-out: % Inhibition at 1 μM, C = ABHD6
T1 construct: Proteomes (mouse brain membrane fraction or cell lysates); from tissue; host or cells: mouse brain membrane fraction (or cell lysates, not specified)
T1 sequence (Q8R2Y0 1-336): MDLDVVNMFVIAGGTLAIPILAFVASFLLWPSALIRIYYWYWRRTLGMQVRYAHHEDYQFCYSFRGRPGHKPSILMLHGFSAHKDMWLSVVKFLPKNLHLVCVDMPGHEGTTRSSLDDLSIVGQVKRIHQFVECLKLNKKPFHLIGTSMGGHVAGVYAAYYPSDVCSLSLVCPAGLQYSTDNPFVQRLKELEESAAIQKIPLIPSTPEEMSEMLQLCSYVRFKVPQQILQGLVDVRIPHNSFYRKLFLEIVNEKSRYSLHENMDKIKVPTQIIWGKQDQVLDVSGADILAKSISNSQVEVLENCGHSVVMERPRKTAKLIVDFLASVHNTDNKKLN
Experimental: (§1) In Vitro Competitive Activity-Based Protein Profiling.
(§2) Proteomes (mouse brain membrane fraction or cell lysates) (50 μL, 1.0 mg/mL total protein concentration) were preincubated with varying concentrations of inhibitors at 37° C. After 30 min, FP-Rh or HT-01 ([…], 50 μM in DMSO) was added and the mixture was incubated for another 30 min at 37° C. Reactions were quenched with SDS loading buffer (15 μL—4×) and run on SDS-PAGE. Following gel imaging, serine hydrolase activity was determined by measuring fluorescent intensity of gel bands corresponding to MAGL, ABHD6, FAAH, and PLA2G7 using ImageJ 1.43u software.

[2] = target: T2, FAAH (Mus musculus, UniProt O08914); conditions: for inhibition at 10 µM: 10 μM inhibitor, read-out: % Inhibition at 10 μM, B = FAAH; for IC50: mouse brain membrane fraction or cell lysates, 30 min preincubation at 37° C., read-out: Mouse (IC50 value, nM) FAAH; for inhibition at 1 µM: 1 μM inhibitor, read-out: % Inhibition at 1 μM, B = FAAH
T2 construct: Proteomes (mouse brain membrane fraction or cell lysates); from tissue; host or cells: mouse brain membrane fraction (or cell lysates, not specified)
T2 sequence (O08914 1-579): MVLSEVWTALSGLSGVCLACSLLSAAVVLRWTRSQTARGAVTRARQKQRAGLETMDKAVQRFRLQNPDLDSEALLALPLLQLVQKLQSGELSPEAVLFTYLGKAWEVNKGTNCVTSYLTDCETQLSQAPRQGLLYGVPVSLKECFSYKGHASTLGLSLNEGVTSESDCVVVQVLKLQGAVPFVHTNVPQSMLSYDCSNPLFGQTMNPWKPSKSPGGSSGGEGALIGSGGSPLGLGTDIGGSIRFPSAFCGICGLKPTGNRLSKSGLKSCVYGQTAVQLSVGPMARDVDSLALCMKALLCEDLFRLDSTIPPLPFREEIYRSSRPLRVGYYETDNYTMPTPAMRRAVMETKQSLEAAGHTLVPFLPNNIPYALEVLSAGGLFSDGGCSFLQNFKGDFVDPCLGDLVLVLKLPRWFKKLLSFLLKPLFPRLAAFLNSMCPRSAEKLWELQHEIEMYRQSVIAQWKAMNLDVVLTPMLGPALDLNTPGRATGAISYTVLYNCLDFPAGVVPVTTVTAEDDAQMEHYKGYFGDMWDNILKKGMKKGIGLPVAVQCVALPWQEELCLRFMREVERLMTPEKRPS
Experimental: as §1, §2

[3] = target: T3, MAGL (Mus musculus, UniProt O35678); conditions: for inhibition at 10 µM: 10 μM inhibitor; for IC50: mouse brain membrane fraction or cell lysates, 30 min preincubation at 37° C., read-out: Mouse (IC50 value, nM) MAGL; for inhibition at 1 µM: 1 μM inhibitor
T3 construct: Proteomes (mouse brain membrane fraction or cell lysates); from tissue; host or cells: mouse brain membrane fraction (or cell lysates, not specified)
T3 sequence (O35678 1-303): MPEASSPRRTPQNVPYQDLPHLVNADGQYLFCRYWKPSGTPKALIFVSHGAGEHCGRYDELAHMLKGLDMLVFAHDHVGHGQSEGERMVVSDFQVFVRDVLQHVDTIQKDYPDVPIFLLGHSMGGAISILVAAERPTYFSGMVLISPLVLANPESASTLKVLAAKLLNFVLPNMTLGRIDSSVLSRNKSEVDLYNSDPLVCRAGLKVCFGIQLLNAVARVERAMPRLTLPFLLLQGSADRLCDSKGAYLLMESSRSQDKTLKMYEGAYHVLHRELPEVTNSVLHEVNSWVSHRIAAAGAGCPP
Experimental: as §1, §2

Compound	inhibition at 10 µM [1]	IC50 [1]	inhibition at 10 µM [2]	IC50 [2]	inhibition at 10 µM [3]	IC50 [3]	inhibition at 1 µM [1]	inhibition at 1 µM [2]	inhibition at 1 µM [3]
Cc1cnn(C(=O)N2CCN(Cc3c(N4CCCC4)cccc3C(F)(F)F)CC2)c1 [Example 111, (4-Methyl-1H-pyrazol-1-yl)(4-(2-(pyrrolidin-1-yl)-6-(trifluoromethyl)benzyl)piperazin-1-yl)methanone]	> 75%	100 to 1000 nM	25 to 75%	> 1000 nM	> 75%	100 to 1000 nM	–	–	–
Cc1cc(-c2ccccc2)ccc1CN1CCN(C(=O)n2cccn2)CC1 [Example 94, (4-((3-Methyl-[1,1′-biphenyl]-4-yl)methyl)piperazin-1-yl)(1H-pyrazol-1-yl)methanone]	–	> 1000 nM	–	100 to 1000 nM	–	< 100 nM	–	–	–
O=C(N1CCCC1)n1cc(-c2ccc(Cl)cc2)cn1 [Example 105, (4-(4-Chlorophenyl)-1H-pyrazol-1-yl)(pyrrolidin-1-yl)methanone]	> 75%	–	> 75%	–	< 25%	–	–	–	–
O=C(N1CCN(C(c2ccc(Cl)cc2)c2ccc(Cl)cc2)CC1)n1cc(F)cn1 [Example 121, (4-(Bis(4-chlorophenyl)methyl)piperazin-1-yl)(4-fluoro-1H-pyrazol-1-yl)methanone]	> 75%	> 1000 nM	> 75%	> 1000 nM	> 75%	< 100 nM	< 25%	< 25%	> 75%
O=C(N1CCN(Cc2c(N3CCCC3)cccc2C(F)(F)F)CC1)n1cc(Cl)cn1 [Example 99, (4-Chloro-1H-pyrazol-1-yl)(4-(2-(pyrrolidin-1-yl)-6-(trifluoromethyl)benzyl)piperazin-1-yl)methanone]	–	–	–	–	–	–	> 75%	> 75%	> 75%
O=C(N1CCCC1)n1cc(-c2ccc(-c3ccccc3Cl)cc2)cn1 [Example 108, (4-(2′-Chloro-[1,1′-biphenyl]-4-yl)-1H-pyrazol-1-yl)(pyrrolidin-1-yl)methanone]	> 75%	–	< 25%	–	< 25%	–	–	–	–
CC(C)c1cnn(C(=O)N2CCN(C(c3ccc(Cl)cc3)c3ccc(Cl)cc3)CC2)c1 [Example 120, (4-(Bis(4-chlorophenyl)methyl)piperazin-1-yl)(4-isopropyl-1H-pyrazol-1-yl)methanone]	> 75%	–	< 25%	–	> 75%	–	25 to 75%	< 25%	25 to 75%
CC(=O)N1CCCN(C(=O)n2cc(Cl)cn2)CC1 [Example 188, 1-(4-(4-Chloro-1H-pyrazole-1-carbonyl)-1,4-diazepan-1-yl)ethanone]	25 to 75%	–	< 25%	–	< 25%	–	–	–	–
Cc1ccc(-c2cnn(C(=O)N3CCCC3)c2)cc1 [Example 104, Pyrrolidin-1-yl(4-(p-tolyl)-1H-pyrazol-1-yl)methanone]	> 75%	–	> 75%	–	< 25%	–	–	–	–
O=C(N1CCN(Cc2ccc(C(F)(F)F)cc2N2CCCC2)CC1)n1cc(F)cn1 [Example 126, (4-Fluoro-1H-pyrazol-1-yl)(4-(2-(pyrrolidin-1-yl)-4-(trifluoromethyl)benzyl)piperazin-1-yl)methanone]	–	100 to 1000 nM	–	100 to 1000 nM	–	< 100 nM	> 75%	> 75%	> 75%
Cc1cnn(C(=O)NCc2ccc3ccccc3c2)c1 [Example 44, 4-Methyl-N-(naphthalen-2-ylmethyl)-1H-pyrazole-1-carboxamide]	< 25%	–	< 25%	–	< 25%	–	–	–	–
O=C(c1cnn(C(=O)N2CCN(C(c3ccc(Cl)cc3)c3ccc(Cl)cc3)CC2)c1)N1CCCCC1 [Example 66, (4-(Bis(4-chlorophenyl)methyl)piperazin-1-yl)(4-(piperidine-1-carbonyl)-1H-pyrazol-1-yl)methanone]	> 75%	100 to 1000 nM	25 to 75%	> 1000 nM	> 75%	100 to 1000 nM	> 75%	< 25%	> 75%
Cc1ccccc1-c1cnn(C(=O)N2CCN(Cc3c(N4CCCC4)cccc3C(F)(F)F)CC2)c1 [Example 114, (4-(2-(Pyrrolidin-1-yl)-6-(trifluoromethyl)benzyl)piperazin-1-yl)(4-(o-tolyl)-1H-pyrazol-1-yl)methanone]	> 75%	100 to 1000 nM	25 to 75%	–	< 25%	–	> 75%	< 25%	< 25%
O=C(c1cnn(C(=O)N2CCN(C(c3ccc(Cl)cc3)c3ccc(Cl)cc3)CC2)c1)N1CCC1 [Example 68, Azetidin-1-yl(1-(4-(bis(4-chlorophenyl)methyl)piperazine-1-carbonyl)-1H-pyrazol-4-yl)methanone]	> 75%	100 to 1000 nM	> 75%	> 1000 nM	> 75%	100 to 1000 nM	> 75%	< 25%	> 75%
O=C(N1CCN(C(c2ccc(Cl)cc2)c2ccc(Cl)cc2)CC1)n1cc(Cl)cn1 [Example 100, (4-(Bis(4-chlorophenyl)methyl)piperazin-1-yl)(4-chloro-1H-pyrazol-1-yl)methanone]	–	100 to 1000 nM	–	> 1000 nM	–	< 100 nM	–	–	–
CC(C)n1cc(CN2CCN(C(=O)n3cc(Cl)cn3)CC2)c(-c2ccccc2)n1 [Example 101, (4-Chloro-1H-pyrazol-1-yl)(4-((1-isopropyl-3-phenyl-1H-pyrazol-4-yl)methyl)piperazin-1-yl)methanone]	–	–	–	–	–	–	> 75%	> 75%	> 75%
O=C(N1CCN(C(c2ccc3c(c2)COC3)c2ccc3c(c2)COC3)CC1)n1cc(Cl)cn1 [Example 95, (4-(Bis(1,3-dihydroisobenzofuran-5-yl)methyl)piperazin-1-yl)(4-chloro-1H-pyrazol-1-yl)methanone]	–	–	–	–	–	–	> 75%	< 25%	> 75%
O=C(N1CCN(Cc2c(N3CCCC3)cccc2C(F)(F)F)CC1)n1cc(-c2ccccc2)cn1 [Example 109, (4-Phenyl-1H-pyrazol-1-yl)(4-(2-(pyrrolidin-1-yl)-6-(trifluoromethyl)benzyl)piperazin-1-yl)methanone]	> 75%	–	> 75%	–	25 to 75%	–	–	–	–
O=C(N1CCN(C(c2ccc(Cl)cc2)c2ccc(Cl)cc2)CC1)n1cc(C(F)(F)F)cn1 [Example 118, (4-(Bis(4-chlorophenyl)methyl)piperazin-1-yl)(4-(trifluoromethyl)-1H-pyrazol-1-yl)methanone]	> 75%	100 to 1000 nM	> 75%	> 1000 nM	> 75%	< 100 nM	> 75%	< 25%	> 75%
